# Measured values: US11192865B2, “Benzosulfonyl compounds” (Vivace Therapeutics, Inc., priority 2017, dated 2021)
# pIC50: −log10 of the molar value.
# Tested on: 8XTBD luciferase reporter
# Assay: YAP Reporter Assay
# Assay type: cell-based
# Details: Homo sapiens, HEK-293T; HEK293T cells stably transfected with 8XTBD luciferase reporter and pRLTK; 24-hr incubation; starting from 3 μM, 1:3 dilution, 10 points; read-out: Firefly Luciferase IC50
# Experimental: HEK293T cells stably transfected with 8XTBD luciferase reporter and pRLTK in 384-well plates were treated with the test compounds, starting from 3 μM (final concentration in assay plate), 1:3 dilution, and 10 points in quadruplicates. Post 24-hr incubation with compounds at 37° C. and 5% CO2, cells were lysed and 8XTBD-driven firefly luciferase and control TK-driven renilla luciferase activities were measured using Promega Dual-Luciferase Reporter Assay System.
# Reagents: The reagents used for this study are: DMEM: Invitrogen #11960077, Dual-Glo Luciferase Assay System: Promega-E2980, Puromycin Dihydrochloride: Invitrogen-A1113803, 384-well plate: PerkinElmer-6007480, L-GLUTAMINE: Invitrogen-25030164, Hygromycin B: Invitrogen-10687010, and Penicillin-Streptomycin: Merk-TMS-AB2-C
# Media: The media used for this assay were: Culture Medium: DMEM+1 ug/mL puromycin+200 ug/mL hygromycin (with 10% FBS+1 mM L-glutamine); and Assay Medium: DMEM (with 10% FBS+1 mM L-glutamine+1×P/S).
# Cell Plating: The appropriate media was warmed at 37° C. by water bath: Culture Medium, Assay Medium, 1* D-PBS, 0.05% trypsin-EDTA. The cells were trypsinized after removing all media, then washed with 1* sterile D-PBS and then with 2 ml 0.05% trypsin-EDTA. The cells were then incubated at RT for one minute. Then 10 ml/75 cm2 flask Assay Medium was added to each flask. Using a 10 ml pipette, the cells were then gently resuspended in the media, until the clumps completely disappeared. The cells were then transferred into 50 ml centrifuge tubes and were centrifuged at 800 rpm for 5 mins. The medium was removed and the cells were resuspended with Assay Medium. An aliquot of cells was used to count the cell density (cells/ml). The cell suspension was then diluted with Assay Medium to a concentration of 6×10^4 cells/ml. 50 ul cells suspension was then plated to 384-well plate (PerkinElmer-6007480), 3×10^3 cells/well and the cells were incubated in an incubator at 37° C., 5% CO2.
# Compound Treatment: In the afternoon (incubation of the plate with 3-4 hrs), the test compounds were added by Echo, starting from 3 uM (final concentration in the assay plate), 1:3 dilution, 10 points, quadruplicates. The plate was placed at 37° C., 5% CO2 incubator for 24 hrs.
# Detection: The Dual-Glo Luciferase Reagent was prepared by transferring the contents of one bottle of Dual-Glo Luciferase Buffer to one bottle of Dual-Glo Luciferase Substrate to create the Dual-Glo Luciferase Reagent. Mixing was performed by inversion until the substrate was thoroughly dissolved. After mixing, the reagent was aliquoted into 15 ml tubes. In the afternoon (24 hrs post compound treatment), the DMEM+ medium in the 384 well plates were aspirated by Microplate Washer.
# Measuring firefly luciferase activity: 20 ul Dual-Glo Luciferase Reagent was added to the 384-well plates. The plates were protected from light to prevent interference with the assay. The plates were shaken for 1 min followed centrifuging plates at 1000 rpm for 30 seconds. After waiting at least 10 minutes, the firefly luminescence was measured by Envision.
# Measuring renilla luciferase activity: 20 ul Stop-Glo Reagent was added to the 384-well plates. The plates were shaken for 1 min and then centrifuged at 1000 rpm for 30 seconds. After waiting at least 10 minutes, the renilla luminescence was measured by Envision.
# Compound IC50 and maximum inhibition on the firefly luciferase and renilla luciferase activities were reported separately.
row,SMILES,pIC50
1,"CC(C)(C)NS(=O)(=O)c1ccc(NC2CCCCC2)c(-c2nn[nH]n2)c1 [Compound 1, N-(tert-butyl)-4-(cyclohexylamino)-3-(2H-tetrazol-5-yl)benzenesulfonamide]",< 5.52
2,"Cc1nc(-c2cc(S(C)(=O)=O)ccc2NC2CCCCC2)no1 [Compound 3, N-cyclohexyl-2-(5-methyl-1,2,4-oxadiazol-3-yl)-4-(methylsulfonyl)aniline]",≥ 7.00
3,"Cn1nnc(-c2cc(S(C)(=O)=O)ccc2NC2CCCCC2)n1 [Compound 5, N-cyclohexyl-2-(2-methyl-2H-tetrazol-5-yl)-4-(methylsulfonyl)aniline]",6.00 to 7.00
4,"Cn1cc(-c2cc(S(C)(=O)=O)ccc2NC2CCCCC2)cn1 [Compound 7, N-cyclohexyl-2-(1-methyl-1H-pyrazol-4-yl)-4-(methylsulfonyl)aniline]",< 5.52
5,"CS(=O)(=O)c1ccc(NC2CCCCC2)c(-n2ccnn2)c1 [Compound 9, N-cyclohexyl-4-(methylsulfonyl)-2-(1H-1,2,3-triazol-1-yl)aniline]",< 5.52
6,"CS(=O)(=O)c1ccc(NC2CCCCC2)c(-n2ccnc2)c1 [Compound 11, N-cyclohexyl-2-(1H-imidazol-1-yl)-4-(methylsulfonyl)aniline]",< 5.52
7,"CS(=O)(=O)c1ccc(NC2CCCCC2)c(-n2cncn2)c1 [Compound 12, N-cyclohexyl-4-(methylsulfonyl)-2-(1H-1,2,4-triazol-1-yl)aniline]",< 5.52
8,"CS(=O)(=O)c1ccc(NC2CCCCC2)c(-n2nccn2)c1 [Compound 13, N-cyclohexyl-4-(methylsulfonyl)-2-(2H-1,2,3-triazol-2-yl)aniline]",6.00 to 7.00
9,"CCCn1nnc(-c2cc(S(=O)(=O)NC)ccc2NC2CCCCC2)n1 [Compound 15, 4-(cyclohexylamino)-N-methyl-3-(2-propyl-2H-tetrazol-5-yl)benzenesulfonamide]",≥ 7.00
10,"CNS(=O)(=O)c1ccc(NC2CCCCC2)c(-c2nnn(-c3ccc(F)cc3)n2)c1 [Compound 16, 4-(cyclohexylamino)-3-(2-(4-fluorophenyl)-2H-tetrazol-5-yl)-N-methylbenzenesulfonamide]",6.00 to 7.00
11,"CNS(=O)(=O)c1ccc(NC2CCCCC2)c(-c2nnn(C3CCCC3)n2)c1 [Compound 18, 4-(cyclohexylamino)-3-(2-cyclopentyl-2H-tetrazol-5-yl)-N-methylbenzenesulfonamide]",6.00 to 7.00

# Results, then the compound that gave them:
row,pIC50,SMILES
1,< 5.52,"CC(C)(C)NS(=O)(=O)c1ccc(NC2CCCCC2)c(-c2nnn(CCO)n2)c1 [Compound 2, N-(tert-butyl)-4-(cyclohexylamino)-3-(2-(2-hydroxyethyl)-2H-tetrazol-5-yl)benzenesulfonamide]"
2,< 5.52,"CS(=O)(=O)c1ccc(NC2CCCCC2)c(-c2nn[nH]n2)c1 [Compound 4, N-cyclohexyl-4-(methylsulfonyl)-2-(2H-tetrazol-5-yl)aniline]"
3,6.00 to 7.00,"Cn1cc(-c2cc(S(C)(=O)=O)ccc2NC2CCCCC2)nn1 [Compound 6, N-cyclohexyl-2-(1-methyl-1H-1,2,3-triazol-4-yl)-4-(methylsulfonyl)aniline]"
4,6.00 to 7.00,"Cn1ccc(-c2cc(S(C)(=O)=O)ccc2NC2CCCCC2)n1 [Compound 8, N-cyclohexyl-2-(1-methyl-1H-pyrazol-3-yl)-4-(methylsulfonyl)aniline]"
5,5.52 to 6.00,"CS(=O)(=O)c1ccc(NC2CCCCC2)c(-n2cccn2)c1 [Compound 10, N-cyclohexyl-4-(methylsulfonyl)-2-(1H-pyrazol-1-yl)aniline]"
6,≥ 7.00,"CCn1nnc(-c2cc(S(=O)(=O)NC)ccc2NC2CCCCC2)n1 [Compound 14, 4-(cyclohexylamino)-3-(2-ethyl-2H-tetrazol-5-yl)-N-methylbenzenesulfonamide]"
7,≥ 7.00,"CNS(=O)(=O)c1ccc(NC2CCCCC2)c(-c2nnn(C3CCC3)n2)c1 [Compound 17, 3-(2-cyclobutyl-2H-tetrazol-5-yl)-4-(cyclohexylamino)-N-methylbenzene sulfonamide]"
